Experimental findings from patent US10399950B2, “Substituted amino azoles as plant growth regulators” (SYNGENTA PARTICIPATIONS AG, priority 2013, dated 2019) are described below.

The structures appear in SMILES notation. Some results are limits rather than exact numbers.

The subject of data set [1] is Wheat (Triticum aestivum) seeds of the variety Arina. The data set can be described thus: Wheat assay: plant (root and shoot) area and curliness of the roots. The format is in vivo. The conditions noted are these: seeds in pouches with 10 mL compound solution; scanned twelve days after sowing/application. The protocol: Two bioassays were developed in order to assay the activity of the compounds of the present invention. In the first assay, the activity of the compound was quantified in beans based on its effect on the elongation of the petiole of the second leaf. In the second assay, the compound's effect on the root growth of wheat was determined. The test compounds were dissolved in small volumes of dimethyl sulfoxide and diluted to the appropriate concentration with water. Wheat (Triticum aestivum) seeds of the variety Arina were sown in pouches (14.7×13.2 cm) containing 10 mL of the appropriate compound solution. The pouches were stored at 17° C. for three days to enable the seeds to germinate. Plants were then stored at 5° C. Twelve days after sowing/application, plants were removed from the pouches and scanned. The effect of the compounds was quantified by determining plant (root and shoot) area and curliness of the roots (curliness is an indicator of brassinosteroid-type activity).

The target in data set [2] is T1, Arabidopsis BIN2 kinase (Uniprot Q39011), His6-BIN2 (Arabidopsis thaliana, UniProt Q39011).
T1 construct: made in house; host or cells: E. coli BL21
T1 sequence (Q39011 1-380): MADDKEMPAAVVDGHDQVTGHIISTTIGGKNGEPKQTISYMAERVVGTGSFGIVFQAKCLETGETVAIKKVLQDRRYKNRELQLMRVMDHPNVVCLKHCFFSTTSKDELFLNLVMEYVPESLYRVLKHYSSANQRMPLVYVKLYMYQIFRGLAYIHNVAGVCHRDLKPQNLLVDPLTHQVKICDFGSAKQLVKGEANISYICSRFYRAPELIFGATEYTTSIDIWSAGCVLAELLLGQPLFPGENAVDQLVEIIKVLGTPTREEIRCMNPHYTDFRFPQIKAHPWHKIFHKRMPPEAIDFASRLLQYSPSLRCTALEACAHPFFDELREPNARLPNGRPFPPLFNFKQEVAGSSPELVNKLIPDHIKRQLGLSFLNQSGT
In words: In vitro assay for inhibition of plant GSK3/shaggy-like kinase activity (ADP-Glo). In kind it is biochemical. As to conditions: compounds at 5 μM; 5 μM ATP; myelin basic protein substrate; 1 h at 20° C.; triplicate; read-out: inhibition of the activity of His6-BIN2 relative to the solvent vehicle control. The protocol:
Arabidopsis BIN2 kinase (Uniprot Q39011) was produced in E. coli BL21 as an N-terminal hexahistidine fusion protein. In vitro kinase assays were performed by incubating 50 ng His6-BIN2 protein with 5 μg myelin basic protein (Sigma-Aldrich) as substrate and 5 μM ATP as co-substrate in reaction buffer consisting of 40 mM Tris-HCl, 20 mM MgCl2 and 0.1 mg/mL bovine serum albumin in a final reaction volume of 50 μl. Enzyme activity was assessed in the absence and presence of compounds (described in Tables A and B) at 5 μM by measuring the level of ADP produced after incubation for 1 h at 20° C. using an enzyme-coupled bioluminescent assay (ADP-Glo, Promega Corp.). The experiment was performed in triplicate and principaly on the acid form (as it the active A1).
On the technique in general: ADP-Glo turns the ADP formed in a reaction into a luminescent signal.

For `COC(=O)CCC(=O)Nc1ncc(C#N)s1` [A1, Methyl 4-[(5-cyanothiazol-2-yl)amino]-4-oxo-butanoate], the melting point lay in the range of 118 to 119 °C. The “curliness of the roots (indicator of brassinosteroid-type activity)” value in data set [1] is “curly root phenotype”.

Turning to `N#Cc1cnc(NC(=O)CCC(=O)O)s1` [A5, 4-[(5-cyanothiazol-2-yl)amino]-4-oxo-butanoic acid], the inhibition at 5 µM in data set [2] is ≥ 20%. Also, the “curliness of the roots (indicator of brassinosteroid-type activity)” value in data set [1] was “curly root phenotype”.

Usually melting point stands for the temperature of the solid-liquid transition. The term inhibition denotes the percentage by which the read-out fell short of the control.
